Earlier results on one compound are cited in PMC8230491 (Pharmaceuticals, 2021).

For this data set the following is noted: KET COOH; protonated LYS γ-NH2; no reference given.

As for `NCCCC[C@H](N)C(=O)O` [LYS, lysine], the pKa (commonly the pH at which an ionisable group is half protonated) is reported as 10.29.
